From patent US20180140655A1, “AGENT CONTAINING IMIDAZOLE DIPEPTIDE” (THE UNIVERSITY OF TOKYO, priority 2014, published 2018)

What was measured:
[1] = Stability at ordinary temperature, under cooking conditions and in solution; format: physicochemical; conditions: for stability under cooking conditions: cooking conditions of 180° C. or lower
Description: The agent, pharmaceutical composition, or nutritional composition of the present invention can be produced by using various known techniques. The step of adjusting concentration of the active ingredient to a predetermined concentration may be performed in various stages of the manufacturing process. Those skilled in the art can appropriately design the steps for producing the agent of the present invention in consideration of solubility, stability, volatility, etc. of the active ingredient. […] It was also confirmed that they can be stably stored over at least 2 years and 9 months in a state of solution.

[2] = cited from earlier work
[3] = tested on: transgenic mice (Alzheimer disease model mice); experiment: Blood cytokines in high fat diet Alzheimer disease model mice; format: in vivo, mouse; conditions: carnosine-containing diet group
Description: (§1) High fat diet (HFD) was given to transgenic mice (Alzheimer disease model mice) to induce cerebral hypofunction. Carnosine (L-histidine-β-alanine) was administered to the mice, and influence of carnosine was evaluated.
(§2) Suppression of cerebral inflammation in the carnosine administration group was also shown by the results of MRI test (FIG. 8-2, red portions). The results of the microarray analysis indicated increase of expressions of GABA transporters such as 7Slc6a12 and slc6a13 observed in the Alzheimer model was suppressed in the carnosine administration group (FIG. 8-3).

[4] = tested on: transgenic mice (Alzheimer disease model mice); experiment: Intracerebral inflammatory reaction by MRI in Alzheimer disease model mice; format: in vivo, mouse; conditions: carnosine administration group, high fat diet transgenic mice
Description: as §1, §2

GABA transporters = experiment: Microarray analysis of GABA transporter genes in Alzheimer disease model mice; format: in vivo, mouse; conditions: carnosine administration group vs Alzheimer model
Description: as §1, §2

[5] = tested on: transgenic mice (Alzheimer disease model mice); experiment: Blood insulin concentration in Alzheimer disease model mice; format: in vivo, mouse; conditions: mice starved overnight; high fat diet-induced Alzheimer disease; p<0.05
Description: as §1
Blood was collected from mice starved overnight, and blood insulin concentration was determined with a kit (Morinaga).

Row | SMILES | stability under cooking conditions [1] | stability at an ordinary temperature [1] | water solubility (in words) [2] | blood cytokines [3] | cerebral inflammation (MRI test) [4] | increase of expression of GABA transporter 7Slc6a12 (GABA transporters) | increase of expression of GABA transporter slc6a13 (GABA transporters) | increase of the blood insulin concentration [5] | water solubility ([2]; at 25° C.) [g/3.1 ml]
1 | Cn1cncc1C[C@H](NC(=O)CCN)C(=O)O [anserine, (2S)-2-[(3-amino-1-oxopropyl)amino]-3-(3-methyl-4-imidazolyl)ppropanoic acid] | sufficiently stable | sufficiently stable | water-soluble |  |  |  |  |  | 
2 | NCCC(=O)N[C@@H](Cc1cnc[nH]1)C(=O)O [carnosine] | sufficiently stable | sufficiently stable | water-soluble | decreased | Suppression | suppressed | suppressed | suppressed | 1
